Legend:
IRE1α kinase = IRE1α kinase (Homo sapiens (Human), UniProt O75460); experiment: Inhibition of kinase activity of IRE1α (ADP-Glo); assay type: biochemical; details: 5 nM IRE1α kinase, 100 µM ATP, 4 hours at room temperature
Method: The kinase reactions were performed in 384 well white ProxiPlate-384 Plus plates (PERKIN Elmer 6008280) using 25 mM MOPS assay buffer with 1 mM dithiothreitol, 25 mM MgCl2, 12.5 mM β-glycerophosphate, 5 mM EGTA, and 50 µg/mL BSA. Test compounds were prepared on the day of assay and dispensed using D300 digital dispenser as a 10-point ½ log dilution series in duplicate, normalized to a final DMSO concentration of 3%. Test compounds were pre-incubated for 30 min at room temperature with 10 nM IRE1α kinase (E31-11G from Signal Chem) in 2.5 µL of assay buffer and the reaction started by addition of 2.5 µL of ATP in assay buffer, to give a final ATP concentration of 100 µm and 5 nM IRE1α kinase. After 4 hours incubation at room temperature the reactions were stopped and the kinase activity determined using the ADP-Glo™ reagent from Promega, according to the manufacturer’s instructions. Luminescence was measured on a luminometer (EnVision, PerkinElmer) and IC50 values calculated by fitting a sigmoidal curve to percent inhibition of control versus Log10 of compound concentration.

IRE1α RNase = IRE1α RNase (Homo sapiens (Human), UniProt O75460); experiment: Inhibition of RNase activity of IRE1α; assay type: biochemical; details: 0.325 nM enzyme, 100 nM substrate, 20 minutes at room temperature
Method: The RNase reactions were performed in 384 well black ProxiPlate-384 Plus plates (PERKIN Elmer) using 50 mM Tris assay buffer with 0.5 mM MgCl2, 10 mM KCl, 0.03 % Tween, 2 mM DTT and 1% DMSO. Test compounds were prepared on the day of assay and dispensed using D300 digital dispenser as a 10-point ½ log dilution series in duplicate, normalized to a final DMSO concentration of […]. Test compounds were pre-incubated for 30 min at room temperature with IRE1α kinase (E31-11G from Signal Chem) in 2.5 µL of assay buffer. Then 2.5 µl of assay buffer containing substrate (5′ Alexa Fluor 647 - rCrArUrGrUrC rCrGrCrArGrCrGrCrArUrG - Iowa Black RQ quencher 3′) (SEQ ID NO:1) added, giving a final concentration of enzyme of 0.325 nM and of substrate of 100 nM. After 20 minutes incubation at room temperature the reactions were stopped by added 5 µL of 5 M urea, incubated at room temperature for 10 minutes and fluorescence measured on a plate reader (EnVision, PerkinElmer). IC50 values calculated by fitting a sigmoidal curve to percent inhibition of control versus compound concentration.

XBP1 = experiment: Cellular XBP1 splicing assay (NanoLuc luciferase reporter); assay type: cell-based; details: Homo sapiens; ARPE-19 cells stably expressing XBP1-nano-luciferase; thapsigargin 150 nM, 4 hour incubation
Method: ARPE-19 cells stably expressing XBP1 (a.a. 1-376) with nano-luciferase gene sequence linked so it is in frame when XBP1 is spliced, were cultured in F12 media, 10 % FBS, 0.044% sodium bicarbonate, 150 µg/ml hygromycin B and seeded for assays at 5,000 cells in 384 well plates in culture media without hygromycin B and incubated at 37° C./5% CO2. After overnight incubation test compounds were added to the cell plate in a 10-point ½ log dilution series in duplicate (final DMSO concentration 0.117 %). After further incubation of 30 minutes thapsigargin was added (final concentration 150 nM) and then another 4 hour incubation. A NanoLuc luciferase assay (Promega) was used according to the manufacturer’s instructions to detect the luciferase and luminescence measured on a luminometer (EnVision, PerkinElmer). IC50 values calculated by fitting a sigmoidal curve to percent inhibition of control of compound concentration.

Chain of IRE1α kinase (O75460 468-977): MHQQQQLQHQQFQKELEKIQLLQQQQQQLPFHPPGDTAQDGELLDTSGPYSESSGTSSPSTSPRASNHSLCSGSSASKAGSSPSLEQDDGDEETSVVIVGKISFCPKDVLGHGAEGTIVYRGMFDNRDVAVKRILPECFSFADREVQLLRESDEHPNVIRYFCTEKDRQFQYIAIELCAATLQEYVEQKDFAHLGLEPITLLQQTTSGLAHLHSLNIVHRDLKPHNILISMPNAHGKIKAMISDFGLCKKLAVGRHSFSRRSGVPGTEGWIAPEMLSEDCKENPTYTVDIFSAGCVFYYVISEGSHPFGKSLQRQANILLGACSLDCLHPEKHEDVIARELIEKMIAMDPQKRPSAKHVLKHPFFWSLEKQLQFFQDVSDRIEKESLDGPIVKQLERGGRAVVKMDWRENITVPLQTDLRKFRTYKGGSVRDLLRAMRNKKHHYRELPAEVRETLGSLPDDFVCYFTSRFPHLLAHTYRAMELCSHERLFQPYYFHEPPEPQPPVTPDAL
Chain of IRE1α RNase (O75460 468-977): as above

| Structure (SMILES) | IC50 (IRE1α kinase) [nM] | IC50 (IRE1α RNase) [nM] | IC50 (XBP1) [nM] |
| --- | --- | --- | --- |
| COC(C)(C)CN[C@H]1CC[C@H](c2cnc(N)c3c(-c4cc(F)c(NS(=O)(=O)c5ccccc5F)cc4F)nn(C(C)C)c32)CC1 [Compound A13, N-(4-(4-amino-1-isopropyl-7-((1r,4r)-4-((2-methoxy-2-methylpropyl)amino)cyclohexyl)-1H-pyrazolo[4,3-c]pyridin-3-yl)-2,5-difluorophenyl)-2-fluorobenzenesulfonamide] | 3.6 | 15.5 | 17 |
| CC(C)n1nc(-c2cc(F)c(NS(=O)(=O)c3cc(Cl)ccc3F)cc2F)c2c(N)ncc([C@H]3CC[C@H](N4CCOCC4)CC3)c21 [Compound A20, N-(4-(4-amino-1-isopropyl-7-((1r,4r)-4-morpholinocyclohexyl)-1H-pyrazolo[4,3-c]pyridin-3-yl)-2,5-difluorophenyl)-5-chloro-2-fluorobenzenesulfonamide] | 2.3 | 3.5 | 10.3 |

Molecules with a lower IC50 (IRE1α kinase), results first:

| IC50 (IRE1α kinase) [nM] | IC50 (IRE1α RNase) [nM] | IC50 (XBP1) [nM] | Structure (SMILES) |
| --- | --- | --- | --- |
| 2.1 | 3.4 | 7.7 | Cc1ccc(F)c(S(=O)(=O)Nc2cc(F)c(-c3nn(C(C)C)c4c3c(N)ncc4[C@H]3CC[C@H](N4CCOCC4)CC3)cc2F)c1 [Compound A12, N-(4-(4-amino-1-isopropyl-7-((1r,4r)-4-morpholinocyclohexyl)-1H-pyrazolo[4,3-c]pyridin-3-yl)-2,5-difluorophenyl)-2-fluoro-5-methylbenzenesulfonamide] |
| 2.1 | 4.8 | 10.6 | CCOc1ccc(Cl)c(S(=O)(=O)Nc2cc(F)c(-c3nn(C(C)C)c4c3c(N)ncc4[C@H]3CC[C@H](N4CCOCC4)CC3)cc2F)c1 [Compound A17, N-(4-(4-amino-1-isopropyl-7-((1r,4r)-4-morpholinocyclohexyl)-1H-pyrazolo[4,3-c]pyridin-3-yl)-2,5-difluorophenyl)-2-chloro-5-ethoxybenzenesulfonamide] |
| 1.9 | 6 | 6.8 | [2H]C([2H])([2H])Oc1ccc(F)c(S(=O)(=O)Nc2cc(F)c(-c3nn(C(C)C)c4c3c(N)ncc4[C@H]3CC[C@H](N4CCOCC4)CC3)cc2F)c1 [Compound A18, N-(4-(4-amino-1-isopropyl-7-((1r,4r)-4-morpholinocyclohexyl)-1H-pyrazolo[4,3-c]pyridin-3-yl)-2,5-difluorophenyl)-2-fluoro-5-(methoxy-d3)benzenesulfonamide] |

— patent US20230331719A1, “Pyrazolopyridine Compounds and Methods of Inhibiting IRE1 Using Same” (OPTIKIRA, LLC, priority 2020, published 2023)
